Experimental findings from patent publication US4374845A, “1-(7-Carboxy-2-octynyl)imidazole derivatives, pharmaceutical compositions and use” (Kissei Pharmaceutical Co., priority 1980, dated 1983) are described below.

The assay has as its target T1, thromboxane synthetase from rabbit platelet microsomes (Oryctolagus cuniculus, UniProt G1TAZ9).
T1 construct: thromboxane synthetase from rabbit platelet microsomes; from tissue; host or cells: rabbit platelet microsomes
T1 sequence (G1TAZ9 1-530): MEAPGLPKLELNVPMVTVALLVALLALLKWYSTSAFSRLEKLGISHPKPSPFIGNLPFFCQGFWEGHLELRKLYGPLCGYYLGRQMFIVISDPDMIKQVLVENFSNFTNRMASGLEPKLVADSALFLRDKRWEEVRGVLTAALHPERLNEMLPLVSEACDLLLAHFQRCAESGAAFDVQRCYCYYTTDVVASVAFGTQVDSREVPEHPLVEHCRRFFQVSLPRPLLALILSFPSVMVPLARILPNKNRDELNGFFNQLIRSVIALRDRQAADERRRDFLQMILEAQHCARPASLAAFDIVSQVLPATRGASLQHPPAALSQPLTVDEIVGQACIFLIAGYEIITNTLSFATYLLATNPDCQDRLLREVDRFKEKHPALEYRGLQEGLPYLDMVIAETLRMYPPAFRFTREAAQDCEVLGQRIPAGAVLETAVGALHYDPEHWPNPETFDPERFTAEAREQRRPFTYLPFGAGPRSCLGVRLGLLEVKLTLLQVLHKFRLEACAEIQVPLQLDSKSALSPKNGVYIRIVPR
As to the kind of experiment: inhibition of thromboxane synthetase from rabbit platelet microsomes. Type of assay: biochemical. Particulars: standard laboratory tests, read-out: molar concentration producing 50% inhibition of thromboxane synthetase. The source says: For example, in standard laboratory tests, 1-(7-carboxy-7-methyl-2-octynyl)imidazole hydrochloride produce a 50% inhibition of thromboxane synthetase from rabbit platelet microsomes at the molar concentrations of 9×10^-9.

Molecules are shown by their SMILES. Counter-ions that a name gives are not always drawn.

For `CC(C)(CCCC#CCn1ccnc1)C(=O)O` [Example 2, 1-(7-carboxy-7-methyl-2-octynyl)imidazole hydrochloride], the IC50 worked out at 9 nM.
